These results are taken from patent US20090317501A1, “Pinus Pinea Plant Extracts For Treating Osteoporosis and the Extraction Process Thereof” (priority 2006, published 2009).

For the test, the system named is osteoclastic bone resorption. Briefly: Bone resorption screening, CTX release by osteoclasts on bovine bone slices. It counts as cell-based, human. The settings on record: positive control; DMSO negative control set to 100%; 5 days incubation. The source says:
Studies have determined that osteoclasts are largely derived from CD14 positive monocytes (J. Haemotol, 1999 July; 106(1):167-70). Clonal analysis of haematopoietic cells by surface phenotypes has been used to further identify osteoclast precursor by characterizing osteoclast like cells distinct from other haematopoietic progenitors (Lee et.al; 1992b Muguruma & Lee; 1988). Surface phenotype analysis has shown that human osteoclasts are derived from CD14 monocytes (Massey & Flanagan, 1999). CD 14 marker is strongly expressed on monocytes, the putative osteoclast precursor in peripheral blood and CD14 positive monocytes have been selected for osteoclastogenesis. (Clin. Sci (Lond) 2000, August, 99 (2): 133-40).
The osteoclasts were isolated as CD 14 positive monocytes and were differentiated into osteoclasts for 10-12 days. Hereafter the osteoclasts were lifted by trypsin, counted and seeded on bovine bone slices at a density of 40,000 cells per bone slice. The osteoclasts were seeded on the cone slices for one day before the plant extracts were added. The osteoclasts were hereby allowed to attach and initiate the resorption activity. […]
The bone resorption experiment was ended after 5 days of incubation and the cell viability was measured by the use of the Alamar blue assay as represented in FIG. 3. […]

`CO/C1=C\C(C)=C\[C@@H](C)[C@@H](O)[C@@H](C)C/C(C)=C/C=C/[C@H](OC)[C@@H]([C@@H](C)[C@@H](O)[C@H](C)[C@@]2(O)C[C@@H](O)[C@H](C)[C@@H](C(C)C)O2)OC1=O` [Bafilomycin]: the “remaining bone resorption (CTX release) as % of DMSO control” value was “approximately 8%”.
